What all share (assay): inhibition of tumour cell growth, NCI panel, 48 h
Test [1] relates to DLD-1 colon.
For test [2], the system named is DMS 114 small cell lung.
Test [3] relates to RXF-631 renal.
Test [4] deals with KM20L2 colon.
The test system of test [5] is M19-MEL melanoma.
The test system of test [6] is XF 498 CNS.

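48-hour exposure; five concentrations; linearly interpolated endpoints. GI50: concentration for 50% inhibition of growth. The concentration for full growth arrest is given as TGI.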

Consider `O/N=C1\C(=C\c2ccc3c(c2)OCCO3)CCCC1C(NO)c1ccc2c(c1)OCCO2` (stereo not given), for which the TGI is greater than 100 µM in test [1]; 44.6 µM in test [2]; greater than 100 µM in test [3]; 35.6 µM in test [4]; 52.5 µM in test [5].
In the case of `O=C1C(=Cc2ccc(F)cc2)C(=O)c2ccccc21`, the TGI in test [1], in test [6], in test [2], in test [3], in test [4] and in test [5] was greater than 100 µM in each case.
With `C=CCCC(=O)CC(=O)OCc1ccccc1`, the TGI in test [1], in test [6], in test [2], in test [3], in test [4] and in test [5] was greater than 100 µM in each case.
As to `COC(=O)C(=O)C(C#N)c1c(Cl)cccc1Cl` (stereo not given), the TGI in test [1], in test [6], in test [2], in test [3], in test [4] and in test [5] was greater than 100 µM throughout.
As to `CC(=O)[O][Hg][c]1s[c]([Hg][O]C(C)=O)[c]([Hg][O]C(C)=O)[c]1[Hg][O]C(C)=O`, in test [4], the GI50 was 14.3 µM and the TGI is 37.3 µM. Further, in test [5], the GI50 was 3.99 µM and the TGI was greater than 100 µM.
As for `COc1cc(CCc2ccncc2)cc(OC)c1OC`, the TGI in test [1], in test [6], in test [2], in test [3], in test [4] and in test [5] was greater than 100 µM each time.
For the compound `Cc1nc(-n2nc(-c3ccccc3)cc2-c2ccccc2)sc1C(=O)/C=C/c1cccc([N+](=O)[O-])c1`, the TGI in test [1] was found to be 24.3 µM; in test [2] it was 34.3 µM; in test [4], 40.8 µM; in test [5], 30.4 µM.
On to `CC1=CC(=O)N2C(OC[C@@H]2c2ccccc2)O1` (stereo not given in full), for which the TGI in test [1], in test [6], in test [4] and in test [5] was greater than 100 µM in each case.
Consider `N#C/C(=C1\OC(N)=C(c2ccc(Cl)cc2)C1=O)c1ccc(Cl)cc1`, for which the TGI was found to be 30.9 µM in test [1], 29.3 µM in test [2], 33 µM in test [4] and 31.4 µM in test [5].
Consider `Cc1ccc(C)c(NC(=O)C(=O)Nn2c(=S)[nH]c3ccccc3c2=O)c1`, for which the TGI in test [1], in test [2], in test [3] and in test [4] was greater than 100 µM in each case.
As for `NC1=Nc2ccccc2Sc2ccccc21`, the TGI in test [1], in test [6], in test [2], in test [4] and in test [5] was greater than 100 µM in each case.
With `Cc1c(Cl)cccc1NC(=O)C(=O)c1c(O)c2ccc(O)cc2oc1=O`, the TGI in test [1], in test [6], in test [2], in test [4] and in test [5] was greater than 100 µM each time.
On to `O=C(N/C(=C\c1ccc(F)cc1)c1nc2ccccc2[nH]1)c1ccccc1`, for which the TGI in test [1], in test [6], in test [2], in test [3], in test [4] and in test [5] was greater than 100 µM each time.
As for `COC1CC(n2cc(F)c(N)nc2=O)OC1CO` (stereo not given), the TGI in test [1], in test [6], in test [2], in test [3] and in test [4] was greater than 100 µM each time.
Consider `CC1=C2C3OC(=O)C(C)C3C(O)C[C@@]2(C)C(=O)CC1` (stereo not given in full), for which the TGI in test [1], in test [2], in test [3], in test [4] and in test [5] was greater than 100 µM throughout.
As for `CC1OC(=O)N2CCC=CC12` (stereo not given), the TGI in test [1], in test [6], in test [2], in test [3], in test [4] and in test [5] was greater than 100 µM throughout.
For `COC(=O)C(C)Oc1ccc(O)cc1` (stereo not given), the TGI was greater than 100 µM in test [1]; 34.7 µM in test [2]; greater than 100 µM in test [3]; greater than 100 µM in test [4]; greater than 100 µM in test [5].
Consider `C#C[C@@H](CCCC)OC(=O)N[C@H](C)c1ccccc1`, for which the TGI in test [1], in test [6], in test [2], in test [3], in test [4] and in test [5] was greater than 100 µM each time.
Regarding `N#CNC1=NCCC(=O)N1CCc1c[nH]c2ccccc12`, the TGI in test [1], in test [6], in test [2] and in test [5] was greater than 100 µM in each case.
For the compound `COC(=O)C#CC(N)=O`, the TGI in test [1] was greater than 100 µM; in test [2] it was greater than 100 µM; in test [3] it was greater than 100 µM; in test [4], greater than 31.6 µM; in test [5] it was greater than 100 µM.
As for `CC1(C2CCC3(C)C(C2)C3Sc2ccccc2)OCCO1` (stereo not given), the TGI in test [1] is 92.2 µM; in test [6], 40.7 µM; in test [2] it was 47.1 µM; in test [5], 40.6 µM.
Regarding `CN(C)C(=S)/N=c1\ss/c(=N\S(=O)(=O)c2ccccc2)n1C`, the TGI in test [1], in test [6], in test [2], in test [4] and in test [5] was greater than 100 µM each time.
Turning to `CC(CC(=O)Nc1ccc(NC(=O)CC(C)N=NC(N)=O)cc1)N=NC(N)=O` (stereo not given), the TGI in test [1] is greater than 100 µM; in test [6], greater than 100 µM; in test [2] it was 38.2 µM; in test [4] it was greater than 100 µM; in test [5] it was greater than 100 µM.

For the origin of these results see PubChem BioAssay (NCI).
